Data published in ChEMBL document CHEMBL5576074, “[1,2,4]Triazolo[1,5-a]pyrimidine derivatives: Structure-activity relationship study leading to highly selective ENPP1 inhibitors” (Bioorg Med Chem Lett, 2024).

target: T1, Ectonucleotide pyrophosphatase/phosphodiesterase family member 1 (Homo sapiens, UniProt P22413); assay: Inhibition of ENPP1 (unknown origin)
T1 sequence (P22413 whole entry): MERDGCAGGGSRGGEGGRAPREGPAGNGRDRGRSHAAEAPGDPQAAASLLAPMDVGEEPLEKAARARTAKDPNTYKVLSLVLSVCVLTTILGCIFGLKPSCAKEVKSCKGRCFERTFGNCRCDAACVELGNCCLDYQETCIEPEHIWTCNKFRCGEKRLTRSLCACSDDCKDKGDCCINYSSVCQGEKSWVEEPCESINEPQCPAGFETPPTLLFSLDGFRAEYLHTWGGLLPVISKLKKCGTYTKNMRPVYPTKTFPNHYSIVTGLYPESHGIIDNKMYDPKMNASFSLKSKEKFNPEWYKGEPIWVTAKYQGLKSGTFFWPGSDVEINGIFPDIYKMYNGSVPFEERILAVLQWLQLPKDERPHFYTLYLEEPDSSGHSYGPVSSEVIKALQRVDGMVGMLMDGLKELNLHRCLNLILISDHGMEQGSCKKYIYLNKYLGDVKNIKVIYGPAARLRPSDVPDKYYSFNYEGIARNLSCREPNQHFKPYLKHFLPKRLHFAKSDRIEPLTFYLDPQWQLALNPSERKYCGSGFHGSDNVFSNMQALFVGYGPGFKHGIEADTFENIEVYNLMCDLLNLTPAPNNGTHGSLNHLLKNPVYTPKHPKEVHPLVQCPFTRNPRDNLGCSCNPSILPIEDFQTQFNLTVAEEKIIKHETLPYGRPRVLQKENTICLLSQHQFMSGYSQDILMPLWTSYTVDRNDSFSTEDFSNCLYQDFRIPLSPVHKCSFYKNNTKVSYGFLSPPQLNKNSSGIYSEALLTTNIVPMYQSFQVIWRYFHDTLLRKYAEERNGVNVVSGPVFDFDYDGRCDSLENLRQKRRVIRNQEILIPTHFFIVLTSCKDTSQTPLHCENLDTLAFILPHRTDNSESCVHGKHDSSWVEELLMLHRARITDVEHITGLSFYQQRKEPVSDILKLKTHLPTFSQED

Structure (SMILES) | IC50
Cc1cc(O)n2ncnc2n1 | > 30 µM
Cc1nc2ncnn2c(N(C)C)c1Cc1ccccc1Cl | 2.5 µM
COc1ccc(Cc2c(C)nc3ncnn3c2N(C)C)cc1OC | 1.3 µM
CC(=O)Nc1cccc(Cc2c(C)nc3ncnn3c2N(C)C)c1 | 2.3 µM
Cc1nc2ncnn2c2c1Cc1ccccc1N2 | > 30 µM

The remaining lines, values ahead:

IC50 | Structure (SMILES)
21 µM | Cc1nc2ncnn2c(N(C)C)c1Cc1cccc(-c2ccccc2)c1
> 30 µM | CNc1c(Cc2ccccc2)c(C)nc2ncnn12
> 30 µM | CCN(CC)c1c(Cc2ccccc2)c(C)nc2ncnn12
> 30 µM | Cc1nc2ncnn2c(N(C)Cc2ccccc2)c1Cc1cccc(N)c1
1.5 µM | Cc1nc2ncnn2c(N(C)C)c1Cc1cccc(F)c1
1.1 µM | Cc1nc2ncnn2c(N(C)C)c1Cc1cccc(Cl)c1
> 30 µM | COCCNc1c(Cc2ccccc2)c(C)nc2ncnn12
11 µM | Cc1nc2ncnn2c(NCCCC(=O)O)c1Cc1cccc(N)c1

target: T2, Ectonucleotide pyrophosphatase/phosphodiesterase family member 3 (Homo sapiens, UniProt O14638); assay: Inhibition of ENPP3 (unknown origin)
T2 sequence (O14638 whole entry): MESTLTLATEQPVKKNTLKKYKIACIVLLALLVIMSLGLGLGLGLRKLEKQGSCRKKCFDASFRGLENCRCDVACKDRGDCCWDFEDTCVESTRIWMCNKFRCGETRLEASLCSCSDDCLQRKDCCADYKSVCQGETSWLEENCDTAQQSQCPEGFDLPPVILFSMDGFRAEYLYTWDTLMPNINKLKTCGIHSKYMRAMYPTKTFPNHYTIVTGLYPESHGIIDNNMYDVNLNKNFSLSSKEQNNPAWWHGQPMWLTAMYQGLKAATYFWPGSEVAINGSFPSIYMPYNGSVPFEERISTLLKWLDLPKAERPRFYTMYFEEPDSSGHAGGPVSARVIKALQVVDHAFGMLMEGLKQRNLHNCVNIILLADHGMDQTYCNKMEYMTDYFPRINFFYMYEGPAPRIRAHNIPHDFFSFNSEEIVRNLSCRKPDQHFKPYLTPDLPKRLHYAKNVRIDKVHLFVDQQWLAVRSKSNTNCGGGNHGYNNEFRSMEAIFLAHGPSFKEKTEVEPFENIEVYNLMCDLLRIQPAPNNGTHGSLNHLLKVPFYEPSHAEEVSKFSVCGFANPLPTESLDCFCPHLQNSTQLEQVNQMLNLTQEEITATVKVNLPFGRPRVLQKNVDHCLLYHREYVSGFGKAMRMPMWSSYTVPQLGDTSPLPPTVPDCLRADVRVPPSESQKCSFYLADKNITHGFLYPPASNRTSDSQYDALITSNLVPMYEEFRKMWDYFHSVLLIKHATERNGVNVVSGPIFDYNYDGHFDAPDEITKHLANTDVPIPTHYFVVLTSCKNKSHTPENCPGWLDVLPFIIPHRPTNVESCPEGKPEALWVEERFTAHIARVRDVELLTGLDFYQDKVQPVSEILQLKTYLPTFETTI

Structure (SMILES) | IC50
Cc1cc(O)n2ncnc2n1 | > 50 µM
Cc1nc2ncnn2c(N(C)C)c1Cc1ccccc1Cl | > 50 µM
COc1ccc(Cc2c(C)nc3ncnn3c2N(C)C)cc1OC | > 50 µM
CC(=O)Nc1cccc(Cc2c(C)nc3ncnn3c2N(C)C)c1 | > 50 µM
Cc1nc2ncnn2c2c1Cc1ccccc1N2 | > 50 µM

More lines, now with the values ahead:

IC50 | Structure (SMILES)
> 50 µM | Cc1nc2ncnn2c(N(C)C)c1Cc1cccc(-c2ccccc2)c1
> 50 µM | CNc1c(Cc2ccccc2)c(C)nc2ncnn12
> 50 µM | CCN(CC)c1c(Cc2ccccc2)c(C)nc2ncnn12
> 50 µM | Cc1nc2ncnn2c(N(C)Cc2ccccc2)c1Cc1cccc(N)c1
> 50 µM | Cc1nc2ncnn2c(N(C)C)c1Cc1cccc(F)c1
> 50 µM | Cc1nc2ncnn2c(N(C)C)c1Cc1cccc(Cl)c1
> 50 µM | COCCNc1c(Cc2ccccc2)c(C)nc2ncnn12
> 50 µM | Cc1nc2ncnn2c(NCCCC(=O)O)c1Cc1cccc(N)c1

target: T3, Autotaxin (Homo sapiens, UniProt Q13822); assay: Inhibition of ENPP2 (unknown origin)

Structure (SMILES) | IC50
Cc1cc(O)n2ncnc2n1 | > 50 µM
Cc1nc2ncnn2c(N(C)C)c1Cc1ccccc1Cl | > 50 µM
COc1ccc(Cc2c(C)nc3ncnn3c2N(C)C)cc1OC | > 50 µM
CC(=O)Nc1cccc(Cc2c(C)nc3ncnn3c2N(C)C)c1 | > 50 µM
Cc1nc2ncnn2c2c1Cc1ccccc1N2 | > 50 µM

Continued, values first:

IC50 | Structure (SMILES)
> 50 µM | Cc1nc2ncnn2c(N(C)C)c1Cc1cccc(-c2ccccc2)c1
> 50 µM | CNc1c(Cc2ccccc2)c(C)nc2ncnn12
> 50 µM | CCN(CC)c1c(Cc2ccccc2)c(C)nc2ncnn12
> 50 µM | Cc1nc2ncnn2c(N(C)Cc2ccccc2)c1Cc1cccc(N)c1
> 50 µM | Cc1nc2ncnn2c(N(C)C)c1Cc1cccc(F)c1
> 50 µM | Cc1nc2ncnn2c(N(C)C)c1Cc1cccc(Cl)c1
> 50 µM | COCCNc1c(Cc2ccccc2)c(C)nc2ncnn12
> 50 µM | Cc1nc2ncnn2c(NCCCC(=O)O)c1Cc1cccc(N)c1

target: T4, Glycerophosphocholine cholinephosphodiesterase ENPP6 (Homo sapiens, UniProt Q6UWR7); assay: Inhibition of ENPP6 (unknown origin)
T4 sequence (Q6UWR7 whole entry): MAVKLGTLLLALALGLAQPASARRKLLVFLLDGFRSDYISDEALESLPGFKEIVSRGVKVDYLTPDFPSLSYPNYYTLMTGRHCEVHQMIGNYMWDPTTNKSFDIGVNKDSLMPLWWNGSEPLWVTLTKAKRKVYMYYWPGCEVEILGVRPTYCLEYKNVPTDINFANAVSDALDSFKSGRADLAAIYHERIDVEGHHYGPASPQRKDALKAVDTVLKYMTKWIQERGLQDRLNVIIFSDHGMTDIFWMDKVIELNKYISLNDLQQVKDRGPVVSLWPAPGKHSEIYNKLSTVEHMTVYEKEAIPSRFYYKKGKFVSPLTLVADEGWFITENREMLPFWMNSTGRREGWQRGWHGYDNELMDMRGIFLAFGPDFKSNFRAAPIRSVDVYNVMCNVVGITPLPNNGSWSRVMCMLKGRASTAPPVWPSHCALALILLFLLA

Structure (SMILES) | IC50
Cc1cc(O)n2ncnc2n1 | > 50 µM
Cc1nc2ncnn2c(N(C)C)c1Cc1ccccc1Cl | > 50 µM
COc1ccc(Cc2c(C)nc3ncnn3c2N(C)C)cc1OC | > 50 µM
CC(=O)Nc1cccc(Cc2c(C)nc3ncnn3c2N(C)C)c1 | > 50 µM
Cc1nc2ncnn2c2c1Cc1ccccc1N2 | > 50 µM

The remaining lines, values ahead:

IC50 | Structure (SMILES)
> 50 µM | Cc1nc2ncnn2c(N(C)C)c1Cc1cccc(-c2ccccc2)c1
> 50 µM | CNc1c(Cc2ccccc2)c(C)nc2ncnn12
> 50 µM | CCN(CC)c1c(Cc2ccccc2)c(C)nc2ncnn12
> 50 µM | Cc1nc2ncnn2c(N(C)Cc2ccccc2)c1Cc1cccc(N)c1
> 50 µM | Cc1nc2ncnn2c(N(C)C)c1Cc1cccc(F)c1
> 50 µM | Cc1nc2ncnn2c(N(C)C)c1Cc1cccc(Cl)c1
> 50 µM | COCCNc1c(Cc2ccccc2)c(C)nc2ncnn12
> 50 µM | Cc1nc2ncnn2c(NCCCC(=O)O)c1Cc1cccc(N)c1

target: T5, Ectonucleotide pyrophosphatase/phosphodiesterase family member 3 (Homo sapiens) (UniProt O14638); assay: Inhibition of ENPP3 (unknown origin) at 50 uM relative to control
T5 sequence (whole entry): T2 sequence (O14638 whole entry)

Structure (SMILES) | inhibition
Cc1cc(O)n2ncnc2n1 | 5.1%
Cc1nc2ncnn2c(N(C)C)c1Cc1ccccc1Cl | 3%
COc1ccc(Cc2c(C)nc3ncnn3c2N(C)C)cc1OC | 4.6%
CC(=O)Nc1cccc(Cc2c(C)nc3ncnn3c2N(C)C)c1 | 3%
Cc1nc2ncnn2c2c1Cc1ccccc1N2 | 21%

The remaining lines, values ahead:

inhibition | Structure (SMILES)
5.9% | Cc1nc2ncnn2c(N(C)C)c1Cc1cccc(-c2ccccc2)c1
10% | CNc1c(Cc2ccccc2)c(C)nc2ncnn12
< 1% | CCN(CC)c1c(Cc2ccccc2)c(C)nc2ncnn12
< 1% | Cc1nc2ncnn2c(N(C)Cc2ccccc2)c1Cc1cccc(N)c1
6.3% | Cc1nc2ncnn2c(N(C)C)c1Cc1cccc(F)c1
8.7% | Cc1nc2ncnn2c(N(C)C)c1Cc1cccc(Cl)c1
3.3% | COCCNc1c(Cc2ccccc2)c(C)nc2ncnn12
11% | Cc1nc2ncnn2c(NCCCC(=O)O)c1Cc1cccc(N)c1

target: T3, Autotaxin; assay: Inhibition of ENPP2 (unknown origin) at 50 uM relative to control

Structure (SMILES) | inhibition
Cc1cc(O)n2ncnc2n1 | < 1%
Cc1nc2ncnn2c(N(C)C)c1Cc1ccccc1Cl | 15%
COc1ccc(Cc2c(C)nc3ncnn3c2N(C)C)cc1OC | 6.8%
CC(=O)Nc1cccc(Cc2c(C)nc3ncnn3c2N(C)C)c1 | < 1%
Cc1nc2ncnn2c2c1Cc1ccccc1N2 | < 1%

The next lines start with the values.

inhibition | Structure (SMILES)
6.1% | Cc1nc2ncnn2c(N(C)C)c1Cc1cccc(-c2ccccc2)c1
< 1% | CNc1c(Cc2ccccc2)c(C)nc2ncnn12
1.9% | CCN(CC)c1c(Cc2ccccc2)c(C)nc2ncnn12
< 1% | Cc1nc2ncnn2c(N(C)Cc2ccccc2)c1Cc1cccc(N)c1
14% | Cc1nc2ncnn2c(N(C)C)c1Cc1cccc(F)c1
19% | Cc1nc2ncnn2c(N(C)C)c1Cc1cccc(Cl)c1
< 1% | COCCNc1c(Cc2ccccc2)c(C)nc2ncnn12
22% | Cc1nc2ncnn2c(NCCCC(=O)O)c1Cc1cccc(N)c1

target: T6, Glycerophosphocholine cholinephosphodiesterase ENPP6 (Homo sapiens) (UniProt Q6UWR7); assay: Inhibition of ENPP6 (unknown origin) at 50 uM relative to control
T6 sequence (whole entry): T4 sequence (Q6UWR7 whole entry)

Structure (SMILES) | inhibition
Cc1cc(O)n2ncnc2n1 | 2.1%
Cc1nc2ncnn2c(N(C)C)c1Cc1ccccc1Cl | < 1%
COc1ccc(Cc2c(C)nc3ncnn3c2N(C)C)cc1OC | < 1%
CC(=O)Nc1cccc(Cc2c(C)nc3ncnn3c2N(C)C)c1 | < 1%
Cc1nc2ncnn2c2c1Cc1ccccc1N2 | < 1%

The next lines start with the values.

inhibition | Structure (SMILES)
< 1% | Cc1nc2ncnn2c(N(C)C)c1Cc1cccc(-c2ccccc2)c1
< 1% | CNc1c(Cc2ccccc2)c(C)nc2ncnn12
< 1% | CCN(CC)c1c(Cc2ccccc2)c(C)nc2ncnn12
< 1% | Cc1nc2ncnn2c(N(C)Cc2ccccc2)c1Cc1cccc(N)c1
< 1% | Cc1nc2ncnn2c(N(C)C)c1Cc1cccc(F)c1
1.3% | Cc1nc2ncnn2c(N(C)C)c1Cc1cccc(Cl)c1
< 1% | COCCNc1c(Cc2ccccc2)c(C)nc2ncnn12
3.7% | Cc1nc2ncnn2c(NCCCC(=O)O)c1Cc1cccc(N)c1
